Common to all, as to format: ADME, organism-based
Data set [1] can be described thus: Primary phase half life in C57BL/6N mouse at 0.171 mM, iv measured upto 24 hrs. As to conditions: in vivo, read-out: alphat1/2 (converted).
A short description of data set [2]: Terminal half life in C57BL/6N mouse at 0.171 mM, iv measured upto 24 hrs. The settings on record: in vivo, read-out: beta t1/2 (converted).
Data set [3] in a line: Clearance in C57BL/6N mouse at 0.171 mM, iv measured upto 24 hrs. The settings on record: in vivo.
Data set [4] is described as follows: AUCt in C57BL/6N mouse at 0.171 mM, iv measured upto 24 hrs. As to conditions: in vivo.
Data set [5] can be described thus: Volume of distribution in C57BL/6N mouse at 0.171 mM, iv measured upto 24 hrs. The settings on record: in vivo.

As for `CCCCCCCCCCCCCCCC(=O)NCCCCC(NC(=O)COCCOCCNC(=O)CCCCC[N+]1=C(/C=C/C2=CC(=C/C=C3/N(C)c4ccc(S(=O)(=O)O)cc4C3(C)C)/CCC2)C(C)(C)c2cc(S(=O)(=O)[O-])ccc21)C(=O)NCCOCCOCC(=O)NCCOCCOCC(=O)NC(CSSc1ccccn1)C(N)=O` (centres undefined), the figures for the half-life at 171 µM in data set [1] and in data set [2] were 1.51 h and 7.62 h, respectively. Besides, in data set [3], the clearance – broadly, the volume of plasma or blood freed of the substance per unit of time – at 171 µM is 0.135 mL/min/kg. Also, the AUC(0-t) (commonly the area under the concentration-time curve up to a stated or last time point) at 24 h, 171 µM in data set [4] was found to be 146000 ng·h/mL. Besides, in data set [5], the Vd (as a rule, the apparent volume that relates the amount in the body to the concentration in plasma or blood) at 171 µM came out at 0.0284 L/kg.

`CN1/C(=C/C=C2C=C(/C=C/C3=[N+](CCCCCC(=O)NCCOCCOCC(=O)NCCOCCOCC(=O)NCCOCCOCC(=O)NC(CSSc4ccccn4)C(N)=O)c4ccc(S(=O)(=O)[O-])cc4C3(C)C)CCC/2)C(C)(C)c2cc(S(=O)(=O)O)ccc21` (centres undefined): the half-life at 171 µM in data set [1] was 1.26 h; in data set [2] it was 4.73 h. This compound also had a clearance at 171 µM in data set [3] of 0.307 mL/min/kg. Besides, the AUC(0-t) at 24 h, 171 µM in data set [4] was 50500 ng·h/mL. The compound also yielded a Vd at 171 µM in data set [5] of 0.0413 L/kg.

Consider `CCCCCCCCCCCCCCCC(=O)NCCCCC(NC(=O)COCCOCCNC(=O)CCCCC[N+]1=C(/C=C/C2=CC(=C/C=C3/N(C)c4ccc(S(=O)(=O)O)cc4C3(C)C)/CCC2)C(C)(C)c2cc(S(=O)(=O)[O-])ccc21)C(=O)NCCOCCOCC(=O)NCCOCCOCC(N)=O` (centres undefined), for which the half-life at 171 µM in data set [2] is 0.83 h. The compound further showed a clearance at 171 µM in data set [3] of 0.563 mL/min/kg. The compound also returned an AUC(0-t) at 24 h, 171 µM in data set [4] of 30800 ng·h/mL. This compound also came in with a Vd at 171 µM in data set [5] of 0.0427 L/kg.

The values above are taken from ChEMBL document CHEMBL6096712, “Ligand Design with Accelerated Disulfide Formation with Serum Albumin to Extend Blood Retention” (ACS Med Chem Lett, 2025).
